In one experiment the target is HLA-A*0201 (Homo sapiens, UniProt P04439, D140Y/D185E/D98H/E176V/E277Q/G131W/G231S/I119V/I121R/I166T/I218V/L300P/L318F/N151K/N90K/P208A/P217A/Q86G/Q94H/R138H/R169H/T345S). In words: Class I peptide binding affinity assay.
The subject of experiment [1] is normal melanocytes in AAD^+tyrosinase^+ (or AAD^−) C57BL/6 mice. The settings on record: mouse, in vivo.

By IC50 is commonly meant the concentration that inhibits the measured activity by half.

No end group written: not given here.

On HLA-A*0201, `CSCC[C@H](NC(=O)[C@@H](NC(=O)CNC(=O)[C@H](CC(=O)O)NC(=O)[C@H](CCSC)NC(=O)[C@@H](N)Cc1ccc(O)cc1)[C@@H](C)O)C(=O)N[C@@H](CO)C(=O)N[C@@H](CCC(N)=O)C(=O)N[C@H](C(=O)O)C(C)C` [YMDGTMSQV] registered an IC50 of 0.074 µM.
Still for that read-out and setting: with FMDGTMSQV [FMDGTMSQV] the figure was 0.065 µM.
“IL-2: Proleukin (IL-2; Chiron), given alone without CTLs”: the “vitiligo, in words” value in experiment [1] was “vitiligo was not observed”.

The record behind these values is PMC2193167 (The Journal of Experimental Medicine, 2000).
